Data set [1] can be described thus: Cyclic voltammetry, direct electro-oxidation on screen-printed carbon electrodes. It counts as physicochemical. The following applies: for anodic peak Epa: first/characteristic anodic peak, carbon electrodes, Ag/AgCl reference, scan rate 0.1 V/s, 0.05M Tris-HCl pH 8.5. On the procedure:
(§1) All electrochemical experiments were performed on screen-printed carbon electrodes with an Ag/AgCl reference electrode in a 3-electrode mode of operation. Cyclic Voltammetry parameters were controlled via a computational program; scan rate: 0.1 V/s, start potential: −0.5V, switch potential: 0.9V, end potential: −0.5V.
(§2) Deionized water (resistivity 18.2MΩ cm) was used in the preparation of solutions. Bilirubin was dissolved in 0.05M sodium hydroxide to prepare 1 mM stock and gently vortexed till homogenously mixed. This stock solution was then diluted using 0.05 M Tris-HCl (pH 8.5) to the desired working concentration. […] Bromophenol blue was prepared in 0.05M Tris-HCl (pH 8.5). Conjugated bilirubin was dissolved in 0.05M Tris-HCl (pH 8.5) and mixed till homogenous. All tubes containing bilirubin were protected from light.
Regarding the detection of unbound unconjugated bilirubin, it was diluted to a physiologically relevant concentration (100 μM) and analyzed by cyclic voltammetry.

The next data set deals with T1, Human serum albumin (Homo sapiens, UniProt P02768).
T1 construct: purchased Sigma Aldrich, UK
T1 sequence (P02768 25-609): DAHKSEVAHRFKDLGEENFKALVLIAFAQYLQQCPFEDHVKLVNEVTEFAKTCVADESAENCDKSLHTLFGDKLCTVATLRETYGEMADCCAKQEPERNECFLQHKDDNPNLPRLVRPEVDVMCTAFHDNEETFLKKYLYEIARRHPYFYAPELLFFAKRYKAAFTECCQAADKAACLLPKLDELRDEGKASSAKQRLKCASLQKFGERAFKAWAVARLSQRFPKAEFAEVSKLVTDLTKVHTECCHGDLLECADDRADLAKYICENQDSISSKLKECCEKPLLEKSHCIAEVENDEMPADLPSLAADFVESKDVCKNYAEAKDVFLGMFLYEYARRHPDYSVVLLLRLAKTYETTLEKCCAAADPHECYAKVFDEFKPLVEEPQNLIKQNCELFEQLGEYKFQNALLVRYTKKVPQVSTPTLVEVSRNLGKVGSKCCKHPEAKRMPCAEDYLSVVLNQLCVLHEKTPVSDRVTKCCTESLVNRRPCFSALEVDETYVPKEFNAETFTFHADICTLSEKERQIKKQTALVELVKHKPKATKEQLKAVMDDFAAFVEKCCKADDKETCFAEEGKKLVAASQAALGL
The experiment in a line: Binding to albumin and displacement of bilirubin by bromophenol blue, assessed by cyclic voltammetry. To be noted: for binding affinity to albumin (in words): inferred from voltammetric results; for effect of binding to albumin on electrochemical oxidation of the ligand: mixed with albumin, cyclic voltammetry; for peak current of liberated unconjugated bilirubin (peak at 0.15V): unconjugated bilirubin + albumin + bromophenol blue. The protocol: as §1, §2
Surfactants, caffeine, sodium benzoate and fatty acids are common solubilizing agents.
As with unconjugated bilirubin, bromophenol blue was used a competitive binding ligand for the displacement of conjugated bilirubin.

A further data set addresses T2, albumin (Homo sapiens, UniProt P02768).
T2 construct: host or cells: human plasma
To be noted: within human plasma; cited from earlier work.

Consider 3 compounds from patent publication US10371707B1, “System and methods for bilirubin analysis” (Neolight LLC, priority 2017, dated 2019).

Molecules are shown by their SMILES. Counter-ions that a name gives are not always drawn.

T2 sequence (P02768 25-609): as above

`O=S1(=O)OC(c2cc(Br)c(O)c(Br)c2)(c2cc(Br)c(O)c(Br)c2)c2ccccc21` [bromophenol blue, 4,4′-(1,1-dioxido-3H-2,1-benzoxathiole-3,3-diyl)bis(2,6-dibromophenol)]: the “anodic peak Epa” value in data set [1] came to 0.64 V. Further, the “displacement of conjugated bilirubin from albumin” value at Human serum albumin (conjugated bilirubin, albumin, bromophenol blue at 1:1:1 ratio) is “sufficiently displaced the conjugated bilirubin”. Also, on Human serum albumin (equal concentration ratios of unconjugated bilirubin, albumin and bromophenol blue), the “displacement of unconjugated bilirubin from albumin” value was “no displacement of unconjugated bilirubin was observed”. Further, the “binding affinity to albumin (in words)” value on Human serum albumin is given as “higher binding affinity”. On Human serum albumin, the “effect of binding to albumin on electrochemical oxidation of the ligand” value is recorded as “diminish the bromophenol blue peak at 0.64V”. Further, the “peak current of liberated unconjugated bilirubin (peak at 0.15V)” value on Human serum albumin (bromophenol blue concentration increased threefold) is listed as 0.347 μA; on Human serum albumin (bromophenol blue concentration increased two-fold), 0.645 μA.

`C=CC1=C(C)/C(=C/c2[nH]c(Cc3[nH]c(/C=C4\NC(=O)C(C)=C4C=C)c(C)c3CCC(=O)NCCS(=O)(=O)O)c(CCC(=O)NCCS(=O)(=O)O)c2C)NC1=O` [conjugated bilirubin, Bilirubin conjugated ditaurate disodium salt]: in data set [1] (cyclic voltammetry, same set-up), the third anodic peak came out at 0.44 V. Also, the secondary anodic peak in data set [1] (cyclic voltammetry, same set-up, for unconjugated bilirubin distinct at 50 μM and higher) is recorded as 0.3 V. In addition, in data set [1], the “anodic peak Epa” value was determined as 0.15 V. Moreover, on Human serum albumin, the “binding affinity to albumin (in words)” value is given as “weaker than that of unbound bilirubin” and the “effect of binding to albumin on electrochemical oxidation of the ligand” value was “hinders oxidation of bilirubin”.

With `C=CC1=C(C)/C(=C/c2[nH]c(Cc3[nH]c(/C=C4\NC(=O)C(C)=C4C=C)c(C)c3CCC(=O)O)c(CCC(=O)O)c2C)NC1=O` [unconjugated bilirubin, Bilirubin (mixed isomers)], on albumin, the “unconjugated bilirubin bound to albumin” value is “roughly 99.9%”.
